Test results from paper PMC7468108 (Communications Biology, 2020).

Columns and labels:
[1] = target: T1, pre-formed fibrils of Aβ42 (Homo sapiens, UniProt P05067); experiment: ThT-binding assay, disaggregation of pre-formed Aβ42 fibrils; assay type: biochemical; conditions: for % amyloid of Aβ42: disaggregation of pre-formed Aβ42 (10 µM) fibrils
T1 construct: purchased rPeptide (USA)
Procedure: For efficient treatment of proteinopathies it may be advantageous to disassemble amyloid aggregates/fibrils which are usually already present at the time of diagnosis[75]–[77]. […] Then, various doses of the hybrid molecules were added to the pre-formed fibrils and the mixtures were incubated for additional 10 h. The process of disaggregation was monitored by ThT-binding assay, CD spectroscopy, TEM and Congo red staining (Fig. 5).
The experiment was performed according to the previous report. […] Kinetics fluorescence data were collected at 37 °C in triplicate using Infinite M200 microplate reader (Tecan, Switzerland), with measurements acquired at 15 min intervals. Excitation and emission wavelengths were set at 440 nm and 485 nm, respectively.

Aβ42 [2] = target: T2, Aβ42 (Homo sapiens, UniProt P05067); experiment: TEM of Aβ42 fibrils formed with the tested molecules; conditions: 5-fold excess of compound
T2 construct: purchased rPeptide (USA)
Procedure: These fibrils also generated the amyloid specific gold-green birefringence upon staining with Congo red (Fig. 3, bottom panel and Supplementary Fig. 6)[74].
Samples (10 µL) were placed for 2 min on 400-mesh copper grids covered with carbon-stabilized Formvar film (Electron Microscopy Sciences (EMS), Hatfield, PA). Excess fluid was removed, and grids were negatively stained with 2% uranyl acetate solution (10 µL) for 2 min. After excess fluid removal, the samples were visualized using a JEM-1400 TEM (JEOL), operated at 80 kV.

Aβ42 [3] = target: T2, Aβ42; experiment: ThT-binding assay, inhibition of Aβ42 aggregation; assay type: biochemical; conditions: for % amyloid of Aβ42: Aβ42 10 µM; for Normalized ThT fluorescence: Aβ42:compound 1:5
Procedure: ThT is known to intercalate within the amyloid fibrils resulting in fluorescence emission proportionate to the amyloid growth.
The resulting thin films were dissolved in PBS (100 mM, pH 7.4) and sonicated for 5 min to get a stock concentration of 50 µM, which immediately diluted to required concentration for an experiment. Stock solutions of ThT (4 mM in PBS) and hybrid molecules (10 mM in PBS) were prepared. All the stock solutions were diluted according to the requirement.
The experiment was performed according to the previous report. […] […] Excitation and emission wavelengths were set at 440 nm and 485 nm, respectively.

[4] = target: T1, pre-formed fibrils of Aβ42; experiment: Congo red birefringence of pre-formed Aβ42 fibrils with the tested molecules; conditions: 5-fold excess of compound
Procedure: For efficient treatment of proteinopathies it may be advantageous to disassemble amyloid aggregates/fibrils which are usually already present at the time of diagnosis[75]–[77]. Therefore, the ability of the hybrid molecules to disrupt pre-formed fibrils of Aβ42 and hIAPP was examined. […] According to the ThT kinetic results, this time was sufficient to complete fibril formation (Fig. 2a, d). Then, various doses of the hybrid molecules were added to the pre-formed fibrils and the mixtures were incubated for additional 10 h. The process of disaggregation was monitored by ThT-binding assay, CD spectroscopy, TEM and Congo red staining (Fig. 5).

T1 sequence (P05067 672-713 limits assumed): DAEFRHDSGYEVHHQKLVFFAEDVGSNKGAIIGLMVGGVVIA
T2 sequence (P05067 672-713 limits assumed): as above

NC(Cc1c[nH]c2ccccc12)C(=O)NC(Cc1c[nH]c2ccccc12)C(=O)O (centres unmarked) [WW]
increase of ThT fluorescence intensity of pre-formed Aβ42 fibrils ([1]; compound added to pre-formed fibrils): ~ 20% | % amyloid of Aβ42 ([1]; molar ratio Aβ42:tested molecule (1:1)): 105.449% | % amyloid of Aβ42 ([1]; molar ratio Aβ42:tested molecule (1:5)): 118.857% | % amyloid of Aβ42 ([1]; molar ratio Aβ42:tested molecule (5:1)): 102.097% | Aβ42 fibril morphology (TEM), in words (Aβ42 [2]): did not display any effect | inhibition of Aβ42 fibril formation (ThT), in words (Aβ42 [3]; any molar ratio (5:1, 1:1, 1:5)): no inhibition effect | % amyloid of Aβ42 (Aβ42 [3]; molar ratio Aβ42:tested molecule 1:1): 98.904% | % amyloid of Aβ42 (Aβ42 [3]; molar ratio Aβ42:tested molecule 1:5): 105.519% | % amyloid of Aβ42 (Aβ42 [3]; molar ratio Aβ42:tested molecule 5:1): 93.190% | Normalized ThT fluorescence (Aβ42 [3]; time 0.000 h): 100.247 | Normalized ThT fluorescence (Aβ42 [3]; time 0.167 h): 60.188 | Normalized ThT fluorescence (Aβ42 [3]; time 0.333 h): 57.612 | Normalized ThT fluorescence (Aβ42 [3]; time 0.500 h): 73.246 | Normalized ThT fluorescence (Aβ42 [3]; time 0.667 h): 91.915 | Normalized ThT fluorescence (Aβ42 [3]; time 0.833 h): 133.372 | Normalized ThT fluorescence (Aβ42 [3]; time 1.000 h): 185.130 | Normalized ThT fluorescence (Aβ42 [3]; time 1.167 h): 238.325 | Normalized ThT fluorescence (Aβ42 [3]; time 1.333 h): 306.731 | Normalized ThT fluorescence (Aβ42 [3]; time 1.500 h): 377.171 | Normalized ThT fluorescence (Aβ42 [3]; time 1.667 h): 441.860 | Normalized ThT fluorescence (Aβ42 [3]; time 1.833 h): 512.406 | Normalized ThT fluorescence (Aβ42 [3]; time 2.000 h): 563.139 | Normalized ThT fluorescence (Aβ42 [3]; time 2.167 h): 622.335 | Normalized ThT fluorescence (Aβ42 [3]; time 2.333 h): 703.467 | Normalized ThT fluorescence (Aβ42 [3]; time 2.500 h): 748.995 | Normalized ThT fluorescence (Aβ42 [3]; time 2.667 h): 831.052 | Normalized ThT fluorescence (Aβ42 [3]; time 2.833 h): 768.926 | Normalized ThT fluorescence (Aβ42 [3]; time 3.000 h): 842.887 | Normalized ThT fluorescence (Aβ42 [3]; time 3.167 h): 889.978 | Normalized ThT fluorescence (Aβ42 [3]; time 3.333 h): 935.606 | Normalized ThT fluorescence (Aβ42 [3]; time 3.500 h): 870.330 | Normalized ThT fluorescence (Aβ42 [3]; time 3.667 h): 968.307 | Normalized ThT fluorescence (Aβ42 [3]; time 3.833 h): 972.259 | Normalized ThT fluorescence (Aβ42 [3]; time 4.000 h): 873.484 | Normalized ThT fluorescence (Aβ42 [3]; time 4.167 h): 934.106 | Normalized ThT fluorescence (Aβ42 [3]; time 4.333 h): 1006.391 | Normalized ThT fluorescence (Aβ42 [3]; time 4.500 h): 929.674 | Normalized ThT fluorescence (Aβ42 [3]; time 4.667 h): 937.654 | Normalized ThT fluorescence (Aβ42 [3]; time 4.833 h): 1043.183 | Normalized ThT fluorescence (Aβ42 [3]; time 5.000 h): 1070.273 | Normalized ThT fluorescence (Aβ42 [3]; time 5.167 h): 1001.135 | Normalized ThT fluorescence (Aβ42 [3]; time 5.333 h): 988.346 | Normalized ThT fluorescence (Aβ42 [3]; time 5.500 h): 1039.570 | Normalized ThT fluorescence (Aβ42 [3]; time 5.667 h): 1028.736 | Normalized ThT fluorescence (Aβ42 [3]; time 5.833 h): 1034.411 | Normalized ThT fluorescence (Aβ42 [3]; time 6.000 h): 1074.727 | Normalized ThT fluorescence (Aβ42 [3]; time 6.167 h): 1044.333 | Normalized ThT fluorescence (Aβ42 [3]; time 6.333 h): 1117.377 | Normalized ThT fluorescence (Aβ42 [3]; time 6.500 h): 1116.291 | Normalized ThT fluorescence (Aβ42 [3]; time 6.667 h): 1054.239 | Normalized ThT fluorescence (Aβ42 [3]; time 6.833 h): 1138.465 | Normalized ThT fluorescence (Aβ42 [3]; time 7.000 h): 1115.829 | Normalized ThT fluorescence (Aβ42 [3]; time 7.167 h): 1058.156 | Normalized ThT fluorescence (Aβ42 [3]; time 7.333 h): 1094.730 | Normalized ThT fluorescence (Aβ42 [3]; time 7.500 h): 1092.412 | Normalized ThT fluorescence (Aβ42 [3]; time 7.667 h): 1062.031 | Normalized ThT fluorescence (Aβ42 [3]; time 7.833 h): 1136.103 | Normalized ThT fluorescence (Aβ42 [3]; time 8.000 h): 1128.627 | Normalized ThT fluorescence (Aβ42 [3]; time 8.167 h): 1116.746 | Normalized ThT fluorescence (Aβ42 [3]; time 8.333 h): 1080.689 | Normalized ThT fluorescence (Aβ42 [3]; time 8.500 h): 1146.007 | Normalized ThT fluorescence (Aβ42 [3]; time 8.667 h): 1085.963 | Normalized ThT fluorescence (Aβ42 [3]; time 8.833 h): 1146.093 | Normalized ThT fluorescence (Aβ42 [3]; time 9.000 h): 1168.158 | Normalized ThT fluorescence (Aβ42 [3]; time 9.167 h): 1195.194 | Normalized ThT fluorescence (Aβ42 [3]; time 9.333 h): 1188.939 | Normalized ThT fluorescence (Aβ42 [3]; time 9.500 h): 1216.176 | Normalized ThT fluorescence (Aβ42 [3]; time 9.667 h): 1201.344 | Normalized ThT fluorescence (Aβ42 [3]; time 9.833 h): 1137.291 | Normalized ThT fluorescence (Aβ42 [3]; time 10.000 h): 1184.898 | Normalized ThT fluorescence (Aβ42 [3]; time 10.167 h): 1153.959 | Normalized ThT fluorescence (Aβ42 [3]; time 10.333 h): 1205.518 | Normalized ThT fluorescence (Aβ42 [3]; time 10.500 h): 1174.187 | Normalized ThT fluorescence (Aβ42 [3]; time 10.667 h): 1185.205 | Normalized ThT fluorescence (Aβ42 [3]; time 10.833 h): 1189.623 | Normalized ThT fluorescence (Aβ42 [3]; time 11.000 h): 1150.543 | Normalized ThT fluorescence (Aβ42 [3]; time 11.167 h): 1169.609 | Normalized ThT fluorescence (Aβ42 [3]; time 11.333 h): 1161.417 | Normalized ThT fluorescence (Aβ42 [3]; time 11.500 h): 1208.267 | Normalized ThT fluorescence (Aβ42 [3]; time 11.667 h): 1187.121 | Normalized ThT fluorescence (Aβ42 [3]; time 11.833 h): 1199.506 | Normalized ThT fluorescence (Aβ42 [3]; time 12.000 h): 1229.396 | Normalized ThT fluorescence (Aβ42 [3]; time 12.167 h): 1189.375 | Normalized ThT fluorescence (Aβ42 [3]; time 12.333 h): 1145.079 | Normalized ThT fluorescence (Aβ42 [3]; time 12.500 h): 1220.539 | Normalized ThT fluorescence (Aβ42 [3]; time 12.667 h): 1203.612 | Normalized ThT fluorescence (Aβ42 [3]; time 12.833 h): 1183.933 | Normalized ThT fluorescence (Aβ42 [3]; time 13.167 h): 1197.309 | Normalized ThT fluorescence (Aβ42 [3]; time 13.333 h): 1166.138 | Normalized ThT fluorescence (Aβ42 [3]; time 13.500 h): 1200.493 | Normalized ThT fluorescence (Aβ42 [3]; time 13.667 h): 1198.718 | Normalized ThT fluorescence (Aβ42 [3]; time 13.833 h): 1242.576 | Normalized ThT fluorescence (Aβ42 [3]; time 14.000 h): 1232.657 | Normalized ThT fluorescence (Aβ42 [3]; time 14.167 h): 1186.307 | Normalized ThT fluorescence (Aβ42 [3]; time 14.333 h): 1161.142 | Normalized ThT fluorescence (Aβ42 [3]; time 14.500 h): 1146.151 | Normalized ThT fluorescence (Aβ42 [3]; time 14.667 h): 1198.390 | Normalized ThT fluorescence (Aβ42 [3]; time 14.833 h): 1196.409 | Normalized ThT fluorescence (Aβ42 [3]; time 15.000 h): 1194.696 | Normalized ThT fluorescence (Aβ42 [3]; time […]): 1190.377 | Congo red birefringence of pre-formed Aβ42 fibrils, in words [4]: faint birefringence
